Reference: publication PMC7181660, “A novel specific PERK activator reduces toxicity and extends survival in Huntington's disease models” (Scientific Reports, 2020)

Legend:
Assay in all cases: biochemical
Assay type in all cases: biochemical
panel of 391 kinases [1] = target: panel of 391 kinases (Homo sapiens, UniProt Q15835); details: GRK1, MK-28 1 µM, ATP 1 µM
panel of 391 kinases [2] = target: panel of 391 kinases (Homo sapiens, UniProt O43781); details: DYRK3, MK-28 1 µM, ATP 1 µM
panel of 391 kinases [3] = target: panel of 391 kinases (Homo sapiens, UniProt P42684); details: ABL2/ARG, MK-28 1 µM, ATP 1 µM
panel of 391 kinases [4] = target: panel of 391 kinases (Homo sapiens, UniProt Q8N4C8); details: MINK/MINK1, MK-28 1 µM, ATP 1 µM
panel of 391 kinases [5] = target: panel of 391 kinases (Homo sapiens, UniProt Q13164); details: ERK5/MAPK7, MK-28 1 µM, ATP 1 µM
panel of 391 kinases [6] = target: panel of 391 kinases (Homo sapiens, UniProt O14965); details: Aurora A, MK-28 1 µM, ATP 1 µM
panel of 391 kinases [7] = target: panel of 391 kinases (Homo sapiens, UniProt O75914); details: PAK3, MK-28 1 µM, ATP 1 µM
panel of 391 kinases [8] = target: panel of 391 kinases (Homo sapiens, UniProt P54764); details: EPHA4, MK-28 1 µM, ATP 1 µM
panel of 391 kinases [9] = target: panel of 391 kinases (Homo sapiens, UniProt P42681); details: TXK, MK-28 1 µM, ATP 1 µM
panel of 391 kinases [10] = target: panel of 391 kinases (Homo sapiens, UniProt Q9UQM7); details: CAMK2a, MK-28 1 µM, ATP 1 µM
panel of 391 kinases [11] = target: panel of 391 kinases (Homo sapiens, UniProt Q9UEE5); details: DRAK1/STK17A, MK-28 1 µM, ATP 1 µM
panel of 391 kinases [12] = target: panel of 391 kinases (Homo sapiens, UniProt O00238); details: ALK6/BMPR1B, MK-28 1 µM, ATP 1 µM
panel of 391 kinases [13] = target: panel of 391 kinases (Homo sapiens, UniProt Q8IU85); details: CAMK1d, MK-28 1 µM, ATP 1 µM
panel of 391 kinases [14] = target: panel of 391 kinases (Homo sapiens, UniProt Q8TD08); details: ERK7/MAPK15, MK-28 1 µM, ATP 1 µM
panel of 391 kinases [15] = target: T1, panel of 391 kinases (Homo sapiens, UniProt Q9NR20); details: DYRK4, MK-28 1 µM, ATP 1 µM
T1 sequence (Q9NR20 1-520): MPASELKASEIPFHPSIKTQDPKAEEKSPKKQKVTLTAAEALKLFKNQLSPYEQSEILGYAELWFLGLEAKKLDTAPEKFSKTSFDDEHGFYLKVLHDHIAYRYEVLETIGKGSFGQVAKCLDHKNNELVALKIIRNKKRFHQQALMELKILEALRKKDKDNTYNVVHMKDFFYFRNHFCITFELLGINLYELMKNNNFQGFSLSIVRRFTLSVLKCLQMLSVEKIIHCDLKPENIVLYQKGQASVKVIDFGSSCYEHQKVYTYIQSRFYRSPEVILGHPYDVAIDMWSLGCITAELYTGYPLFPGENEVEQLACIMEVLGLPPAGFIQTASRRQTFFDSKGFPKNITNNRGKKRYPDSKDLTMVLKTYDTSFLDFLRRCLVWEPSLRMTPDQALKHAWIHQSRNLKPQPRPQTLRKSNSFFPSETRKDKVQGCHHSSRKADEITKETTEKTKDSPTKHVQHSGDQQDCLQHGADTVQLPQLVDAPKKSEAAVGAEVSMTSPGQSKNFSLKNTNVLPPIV

panel of 391 kinases [16] = target: panel of 391 kinases (Homo sapiens, UniProt Q9UF33); details: EPHA6, MK-28 1 µM, ATP 1 µM
panel of 391 kinases [17] = target: panel of 391 kinases (Homo sapiens, UniProt P08069); details: IGF1R, MK-28 1 µM, ATP 1 µM
panel of 391 kinases [18] = target: panel of 391 kinases (Homo sapiens, UniProt Q15375); details: EPHA7, MK-28 1 µM, ATP 1 µM
panel of 391 kinases [19] = target: panel of 391 kinases (Homo sapiens, UniProt Q16513); details: PKN2/PRK2, MK-28 1 µM, ATP 1 µM
panel of 391 kinases [20] = target: panel of 391 kinases (Homo sapiens, UniProt P30530); details: AXL, MK-28 1 µM, ATP 1 µM
panel of 391 kinases [21] = target: panel of 391 kinases (Homo sapiens, UniProt Q16832); details: DDR2, MK-28 1 µM, ATP 1 µM
panel of 391 kinases [22] = target: panel of 391 kinases (Homo sapiens, UniProt O14920); details: IKKb/IKBKB, MK-28 1 µM, ATP 1 µM
[23] = read-out: % Enzyme Activity (relative to DMSO controls)

How did the “% Enzyme Activity (relative to DMSO controls)” value (panel of 391 kinases [1]) turn out when `CN(/N=C\c1ccc(O)c(O)c1)c1nc(-c2ccccc2)cc(-c2ccccc2)n1` [MK-28] was run?
Its value is 96.61%.

And the remaining activity at 1 µM (panel of 391 kinases [1]; [23])?
Its remaining activity at 1 µM is 102%.

What about the “% Enzyme Activity (relative to DMSO controls)” value (panel of 391 kinases [2]) of the same compound?
The value was 96.41%.

And the remaining activity at 1 µM (panel of 391 kinases [2]; [23])?
The remaining activity at 1 µM was 97.5%.

And the “% Enzyme Activity (relative to DMSO controls)” value (panel of 391 kinases [3])?
Its value is 99.46%.

And the remaining activity at 1 µM (panel of 391 kinases [3]; [23])?
Its remaining activity at 1 µM is 100%.

And the “% Enzyme Activity (relative to DMSO controls)” value (panel of 391 kinases [4])?
The value was 95.98%.

And the remaining activity at 1 µM (panel of 391 kinases [4]; [23])?
Its remaining activity at 1 µM is 98.7%.

And the “% Enzyme Activity (relative to DMSO controls)” value (panel of 391 kinases [5])?
Its value is 118.22%.

What about the remaining activity at 1 µM (panel of 391 kinases [5]; [23]) of the same compound?
The remaining activity at 1 µM was 119%.

And the “% Enzyme Activity (relative to DMSO controls)” value (panel of 391 kinases [6])?
The value was 71.13%.

What about the remaining activity at 1 µM (panel of 391 kinases [6]; [23]) of the same compound?
Its remaining activity at 1 µM is 73.2%.

What about the “% Enzyme Activity (relative to DMSO controls)” value (panel of 391 kinases [7]) of the same compound?
The value was 116.60%.

And the remaining activity at 1 µM (panel of 391 kinases [7]; [23])?
Its remaining activity at 1 µM is 117%.

And the “% Enzyme Activity (relative to DMSO controls)” value (panel of 391 kinases [8])?
Its value is 100.54%.

What about the remaining activity at 1 µM (panel of 391 kinases [8]; [23]) of the same compound?
Its remaining activity at 1 µM is 101%.

What about the “% Enzyme Activity (relative to DMSO controls)” value (panel of 391 kinases [9]) of the same compound?
The value was 93.01%.

And the remaining activity at 1 µM (panel of 391 kinases [9]; [23])?
The remaining activity at 1 µM was 94.1%.

What about the “% Enzyme Activity (relative to DMSO controls)” value (panel of 391 kinases [10]) of the same compound?
Its value is 100.97%.

And the remaining activity at 1 µM (panel of 391 kinases [10]; [23])?
The remaining activity at 1 µM was 103%.

What about the “% Enzyme Activity (relative to DMSO controls)” value (panel of 391 kinases [11]) of the same compound?
Its value is 99.69%.

And the remaining activity at 1 µM (panel of 391 kinases [11]; [23])?
The remaining activity at 1 µM was 102%.

What about the “% Enzyme Activity (relative to DMSO controls)” value (panel of 391 kinases [12]) of the same compound?
Its value is 100.96%.

And the remaining activity at 1 µM (panel of 391 kinases [12]; [23])?
Its remaining activity at 1 µM is 101%.

And the “% Enzyme Activity (relative to DMSO controls)” value (panel of 391 kinases [13])?
Its value is 86.95%.

And the remaining activity at 1 µM (panel of 391 kinases [13]; [23])?
The remaining activity at 1 µM was 87.6%.

And the “% Enzyme Activity (relative to DMSO controls)” value (panel of 391 kinases [14])?
Its value is 103.38%.

What about the remaining activity at 1 µM (panel of 391 kinases [14]; [23]) of the same compound?
The remaining activity at 1 µM was 105%.

And the “% Enzyme Activity (relative to DMSO controls)” value (panel of 391 kinases [15])?
The value was 99.42%.

And the remaining activity at 1 µM (panel of 391 kinases [15]; [23])?
Its remaining activity at 1 µM is 101%.

And the “% Enzyme Activity (relative to DMSO controls)” value (panel of 391 kinases [16])?
Its value is 92.67%.

And the remaining activity at 1 µM (panel of 391 kinases [16]; [23])?
The remaining activity at 1 µM was 94%.

And the “% Enzyme Activity (relative to DMSO controls)” value (panel of 391 kinases [17])?
The value was 98.39%.

And the remaining activity at 1 µM (panel of 391 kinases [17]; [23])?
The remaining activity at 1 µM was 100%.

And the “% Enzyme Activity (relative to DMSO controls)” value (panel of 391 kinases [18])?
The value was 96.58%.

And the remaining activity at 1 µM (panel of 391 kinases [18]; [23])?
The remaining activity at 1 µM was 98.6%.

What about the “% Enzyme Activity (relative to DMSO controls)” value (panel of 391 kinases [19]) of the same compound?
The value was 111.91%.

And the remaining activity at 1 µM (panel of 391 kinases [19]; [23])?
The remaining activity at 1 µM was 115%.

And the “% Enzyme Activity (relative to DMSO controls)” value (panel of 391 kinases [20])?
The value was 98.72%.

And the remaining activity at 1 µM (panel of 391 kinases [20]; [23])?
Its remaining activity at 1 µM is 99.5%.

And the “% Enzyme Activity (relative to DMSO controls)” value (panel of 391 kinases [21])?
Its value is 95.21%.

What about the remaining activity at 1 µM (panel of 391 kinases [21]; [23]) of the same compound?
The remaining activity at 1 µM was 97.4%.

What about the “% Enzyme Activity (relative to DMSO controls)” value (panel of 391 kinases [22]) of the same compound?
Its value is 96.13%.

And the remaining activity at 1 µM (panel of 391 kinases [22]; [23])?
The remaining activity at 1 µM was 96.9%.
